One may read the IC50 as the concentration needed to halve the response being measured.

The subject of one data set is HEK293. Nature of the data set: Toxicity against HEK293 cells assessed as reduction in cell viability at 10 uM incubated for 24 hrs by cell titre blue viability assay relative to control. Type of data set: cell-based. The settings on record: human, hek293, 24 h.
In data set [1] the target is T1, B-cell lymphoma 3 protein (Homo sapiens) (UniProt P20749).
T1 sequence (whole entry): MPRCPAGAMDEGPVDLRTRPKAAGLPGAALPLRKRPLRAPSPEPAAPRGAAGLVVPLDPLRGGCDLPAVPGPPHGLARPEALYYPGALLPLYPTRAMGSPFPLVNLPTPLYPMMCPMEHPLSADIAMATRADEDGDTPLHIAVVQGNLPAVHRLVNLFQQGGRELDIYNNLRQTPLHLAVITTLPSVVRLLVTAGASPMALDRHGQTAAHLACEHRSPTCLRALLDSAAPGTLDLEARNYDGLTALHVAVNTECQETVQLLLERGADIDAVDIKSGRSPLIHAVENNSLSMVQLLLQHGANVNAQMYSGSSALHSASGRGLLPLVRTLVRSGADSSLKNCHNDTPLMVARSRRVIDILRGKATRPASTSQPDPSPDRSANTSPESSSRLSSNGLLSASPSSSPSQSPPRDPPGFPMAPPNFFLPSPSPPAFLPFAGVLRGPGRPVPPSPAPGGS
Nature of the data set: Inhibition of Bcl-3 in human MDA-MB-231 cells assessed as reduction in NF-kappaB signalling at 1 uM incubated for 24 hrs by NF-kappaB promoter dependent luciferase reporter gene assay. Type of data set: cell-based. (Reporter assays use an easily measured gene product as a stand-in for the process of interest.)

The test system of data set [2] is MDA-MB-231. Nature of the data set: Toxicity against human MDA-MB-231 cells assessed as reduction in cell viability at 10 uM incubated for 24 hrs by cell titre blue viability assay relative to control. It counts as cell-based. Particulars: mda-mb-231, 24 h.
Data set [3] in a line: Solubility in DMSO assessed per 100 ml. Type of data set: physicochemical.
Data set [4] is described as follows: Solubility in methanol assessed per 100 ml. It counts as physicochemical.
A short description of data set [5]: Solubility in dichloromethane assessed per 100 ml. Type of data set: physicochemical.
Data set [6] is described as follows: Solubility in ethyl acetate assessed per 100 ml. It counts as physicochemical.
Data set [7] is described as follows: Solubility in ethanol assessed per 100 ml. It counts as physicochemical.
A short description of data set [8]: Solubility in water assessed per 100 ml. It counts as physicochemical. Particulars: buffer.
Data set [9] is described as follows: Solubility in diethyl ether assessed per 100 ml. Type of data set: physicochemical.
Data set [10] deals with MDA-MB-231. Nature of the data set: Inhibition of cell migration of human MDA-MB-231 cells overexpressing Bcl-3 assessed as cell motility at 10 nM incubated for 24 hrs by Boyden chamber assay relative to control. Type of data set: functional. Further details: scale not given: the % may be the effect or the level left.
For data set [11], the system named is MDA-MB-231. Nature of the data set: Inhibition of cell migration of human MDA-MB-231 cells overexpressing Bcl-3 assessed as reduction in cell motility incubated for 24 hrs by Boyden chamber assay. The settings on record: MDA-MB-231, 24 h. Type of data set: functional, cell-based.

The source made the active and inactive calls. No cut-off for these calls is given here.

`O=C(Nc1ccccc1C(=O)NCCN1CCCCC1)c1ccccc1F`: the Activity in the data set on HEK293 and with MDA-MB-231 [2] was greater than 70% throughout. In addition, the inhibition entry in data set [1] is “Active”.

Turning to `Cl.O=C(Nc1ccccc1C(=O)NCCN1CCOCC1)c1ccccc1F`, the solubility is recorded as less than 0.01 g in data set [3]; 0.59 g in [4]; 0.9 g in data set [5]; 0.02 g in data set [6]; 0.19 g in data set [7]; 0.95 g in data set [8]. Besides, in data set [9], the solubility is recorded as 0.01 g.

In the case of `O=C(NCCN1CCOCC1)c1ccccc1NC(=O)c1c(F)cccc1F`, the Activity with HEK293 and with MDA-MB-231 [2] was greater than 90% throughout.

As for `O=C(NCCN1CCOCC1)c1ccccc1NC(=O)c1ccccc1[N+](=O)[O-]`, the Activity in the data set on HEK293 and with MDA-MB-231 [2] was greater than 70% in each case.

On to `COc1ccc(C(=O)Nc2ccccc2C(=O)NCCN2CCOCC2)cc1OC`, for which the Activity with HEK293 and with MDA-MB-231 [2] was greater than 90% throughout.

Take `COc1cc(C(=O)Nc2ccccc2C(=O)NCCN2CCOCC2)cc(OC)c1OC`: the Activity in the data set on HEK293 and in the data set on MDA-MB-231 [2] was greater than 90% each time.

As for `COc1cc(OC)cc(C(=O)Nc2ccccc2C(=O)NCCN2CCOCC2)c1`, the Activity in the data set on HEK293 and in the data set on MDA-MB-231 [2] was greater than 90% each time.

Regarding `O=C(Nc1ccc(I)cc1C(=O)NCCN1CCOCC1)c1ccccc1F`, the inhibition result in data set [1] is “Active”.

With `Cc1cccc(C(=O)NCCN2CCOCC2)c1NC(=O)c1ccccc1F`, the Activity in the data set on HEK293 and in the data set on MDA-MB-231 [2] was greater than 70% throughout.

With `O=C(Nc1ccccc1C(=O)NCCN1CCOCC1)c1ccccc1F` [listing 1 of 2 here], in [1], the inhibition result is “Active”.

In the case of `COc1ccc(C(=O)Nc2ccccc2C(=O)NCCN2CCOCC2)cc1`, the figures for the Activity with HEK293, in the data set with MDA-MB-231 [2] and in the data set on MDA-MB-231 [10] were greater than 70%, greater than 70% and less than 50%, respectively. Besides, the inhibition result in [1] was “Active”.

For the molecule `Cc1ccccc1C(=O)Nc1ccccc1C(=O)NCCN1CCOCC1`, the Activity in the data set with HEK293 and in the data set with MDA-MB-231 [2] was greater than 70% each time.

Consider `O=C(Nc1ccccc1C(=O)NCCN1CCOCC1)c1ccccc1F` [listing 2 of 2 here], for which the solubility is on record as 3.71 g in data set [3]; 0.2 g in [4]; 2.91 g in [5]; 0.34 g in data set [6]; 0.09 g in data set [7]; less than 0.01 g in [8]. In data set [9], the solubility worked out at 0.09 g. For the same molecule, the Activity in the data set with HEK293 and with MDA-MB-231 [2] was greater than 70% in each case.

On to `O=C(Nc1ccccc1C(=O)NCCN1CCOCC1)c1ccc(F)cc1`, for which the Activity in the data set on HEK293 and in the data set on MDA-MB-231 [2] was greater than 70% each time.

With `O=C(Nc1cccc(Cl)c1C(=O)NCCN1CCOCC1)c1ccccc1F`, the Activity in the data set on HEK293 and with MDA-MB-231 [2] was greater than 70% throughout.

Turning to `COc1cccc(C(=O)NCCN2CCOCC2)c1NC(=O)c1ccccc1F`, the Activity in the data set on HEK293 and with MDA-MB-231 [2] was greater than 70% in each case.

Turning to `NCCNC(=O)c1ccccc1NC(=O)c1ccccc1F`, the Activity in the data set with HEK293 and in the data set with MDA-MB-231 [2] was greater than 70% throughout.

In the case of `O=C(Nc1ccccc1C(=O)NCN1CCCC1)c1ccccc1F`, the Activity in the data set on HEK293 and in the data set on MDA-MB-231 [2] was greater than 70% each time. In the data set with MDA-MB-231 [11], the half-inhibitory concentration (IC50) was 3.65 µM.

For `O=C(Nc1ccccc1C(=O)NCCCN1CCOCC1)c1ccccc1F`, the Activity in the data set on HEK293 and with MDA-MB-231 [2] was greater than 70% each time. The inhibition entry in data set [1] is “Active”.

Take `COc1cccc(C(=O)Nc2ccccc2C(=O)NCCN2CCOCC2)c1`: the Activity in the data set on HEK293 and in the data set with MDA-MB-231 [2] was greater than 70% throughout.

In the case of `O=C(Nc1ccccc1C(=O)NCCc1ccccn1)c1ccccc1F`, the Activity with HEK293 and in the data set on MDA-MB-231 [2] was greater than 70% in each case.

For `O=C(Nc1ccccc1C(=O)NCCN1CCOCC1)c1cc(F)cc(F)c1`, the Activity in the data set with HEK293 and with MDA-MB-231 [2] was greater than 90% in each case.

On to `O=C(Nc1ccccc1C(=O)NCCN1CCOCC1)c1ccc([N+](=O)[O-])cc1`, for which the Activity in the data set with HEK293 and in the data set with MDA-MB-231 [2] was greater than 70% in each case.

Consider `O=C(Nc1ccccc1C(=O)NCCN1CCOCC1)c1ccc(F)cc1F`, for which the Activity in the data set on HEK293 and with MDA-MB-231 [2] was greater than 90% throughout.

The record behind these values is ChEMBL document CHEMBL4421724, “2-benzoylaminobenzamide derivatives as bcl-3 inhibitors” (2016).
